# According to patent US20190322676A1, “CERAMIDE GALACTOSYLTRANSFERASE INHIBITORS FOR THE TREATMENT OF DISEASE” (BioMarin Pharmaceutical Inc., priority 2016, published 2019):
# Structures can show the parent of a compound that is named as a salt.
# Molecular target: T1, human CGT (ceramide galactosyltransferase), CHO/CGT lysate (Homo sapiens, UniProt Q16880)
# T1 construct: Full-length human CGT cDNA was cloned into the BamH1/Xho1 site of pcDNA3.1 (+); expressed in transfected cells; host or cells: Chinese hamster ovary (CHO) cells; lysate prepared with M-PER
# T1 sequence (Q16880 21-541): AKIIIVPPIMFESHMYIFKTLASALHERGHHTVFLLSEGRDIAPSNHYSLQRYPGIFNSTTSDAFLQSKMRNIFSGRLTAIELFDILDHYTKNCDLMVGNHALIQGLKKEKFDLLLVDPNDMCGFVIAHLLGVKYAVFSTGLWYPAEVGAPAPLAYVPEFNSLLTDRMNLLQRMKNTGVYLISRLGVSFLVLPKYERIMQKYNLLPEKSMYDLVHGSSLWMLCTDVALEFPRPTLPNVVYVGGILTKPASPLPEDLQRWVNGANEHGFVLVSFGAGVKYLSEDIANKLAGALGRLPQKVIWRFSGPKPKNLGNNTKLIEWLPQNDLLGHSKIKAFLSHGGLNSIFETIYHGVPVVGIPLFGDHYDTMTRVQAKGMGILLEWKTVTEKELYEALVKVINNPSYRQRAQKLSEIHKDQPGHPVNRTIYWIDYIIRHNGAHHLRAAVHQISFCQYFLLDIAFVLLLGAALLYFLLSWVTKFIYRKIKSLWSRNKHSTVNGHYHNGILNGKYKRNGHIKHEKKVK
# Experiment: CGT enzyme assay, RapidFire/MS/MS readout (Table 1 ranges with one asterisk *)
# Assay type: biochemical
# Conditions: RapidFire method (range with one asterisk *)
# Experimental: Full-length human CGT cDNA was cloned into the BamH1/Xho1 site of pcDNA3.1 (+) mammalian expression vector (V90-20, Invitrogen, Carlsbad, Calif.) and the plasmid was transfected into Chinese hamster ovary (CHO) cells. Lysate was prepared using M-PER (Mammalian Protein Extraction Reagent, ThermoFisher Scientific, Grand Island, N.Y.) in the presence of a protease inhibitor cocktail (P8340, Sigma, Saint Louis, Mo.). Each 100 mm dish (100% confluent, approximately 1×10^7 cells) was lysed with 250 μL of M-PER containing protease inhibitors. Protein concentration was determined using a Pierce BCA protein assay kit (ThermoFisher Scientific). Four micrograms of CHO/CGT lysate was incubated with various concentrations of a compound (0.001 μM-50 μM) in 10 mM HEPES (pH 7.2) containing 35 μM dioleoylphosphatidylcholine, 5 mM MgCl2, 5 mM MnCl2, 1% BSA, 15 mM KCl, 1 mM EGTA, 8 mM CHAPS, 10 μM C6-NBD-dihydro-ceramide and 17.5 μM UDP-galactose in a final reaction volume of 20 μL at 37° C. for 1 hour. The final concentration of DMSO was 0.5% in both compound-treated and mock-treated samples. Tween 80 (0.01%) was optionally added to the reaction mixture to help solubilize the compounds. Each individual reaction was diluted with 80 μL of methanol:acetronitrile (1:3) containing 5 μM N-docdecanoyl-NBD-galactosylceramide (internal standard) to stop the reaction. 200 μL H2O:acetonitile (1:1) was added to precipitate the protein. After sufficient mixing, the plates were centrifuged at 2469 g for 38 minutes, 200 μL of supernatant was transferred to a LC/MS 96-deep well plate and a second spin was performed at 2469 g for 10 minutes. The final supernatant was injected in triplicate for RapidFire/MS/MS analysis.
# Quantitative Analysis Using the RapidFire/MS/MS Method:
# The quantitative analysis of C6-NBD-dihydro-ceramide and C6-NBD-dihydro-galactosylceramide was performed on a Rapid Fire 360 high-throughput mass spectrometry system (Agilent Technologies, Palo Alto, Calif.) coupled with a API4000^+ triple quadrupole mass spectrometer (Applied Biosystems, Concord, Ontario, Canada). RapidFire software packages, including RapidFire Control panel, RapidFire UI and RapidFire Integrator (Agilent Technologies), were used to control the RapidFire instrument and to process data. Analyst 1.6.2 software packages (Applied Biosystems) were used to control the MS system and acquire MS data. […] of sample was loaded on a micro-scale C4 solid-phase extraction (SPE) cartridge (Agilent Technologies) and salts were removed using water supplemented with 0.1% formic acid at the flow rate of 1.5 mL/min for 3 sec. C6-NBD-dihydro-ceramide and C6-NBD-dihydro-galactosylceramide were co-eluted into the mass spectrometer using acetonitrile containing 0.1% formic acid at the flow rate of 1.0 mL/min for 3 sec. The total cycle time of one injection was 8 secs. The MS/MS detection was performed in ESI negative mode. The mass transition of C6-NBD-dihydro-galactosylceramide was m/z 752.6→678.6 using a −40 V collision energy, the mass transition of C6-NBD-dihydro-ceramide was m/z 590.6→115.8 using a −40 V collision energy and the mass transition of N-docdecanoyl-NBD-galactosylceramide was m/z 820.9→746.3 using a −45 V collision energy.
# The C6-NBD-dihydro-galactosylceramide reading was normalized first by dividing the peak area of C6-NBD-dihydro-galactosylceramide by the peak area of the internal standard, N-docdecanoyl-NBD-galactosylceramide. IC50 values (see Table 1, where data ranges with one asterix (*) correspond to analysis using the RapidFire/MS/MS method, and data ranges with two asterixes (**) correspond to analysis using the RapidFire/MS/MS method with 0.01% Tween added) were generated from sigmoidal dose-response curves (variable slope) with GraphPad Prism software (GraphPad Software, Inc., San Diego, Calif.) using the normalized peak areas of C6-NBD-dihydro-galactosylceramide or the percent inhibition of C6-NBD-dihydro-galactosylceramide accumulation relative to DMSO control. […]
row,Compound,IC50 [µM]
1,"NC1CC2CCC(C1)N2C(=O)[C@@H](NS(=O)(=O)c1ccc2cc(OC3CCCC3)ccc2c1)C(F)(F)c1ccc(I)cc1 (stereo partly drawn) [Compound 42-1, N-((2R)-3-(3-amino-8-azabicyclo[3.2.1]octan-8-yl)-1,1-difluoro-1-(4-iodophenyl)-3-oxopropan-2-yl)-6-(cyclopentyloxy)naphthalene-2-sulfonamide trifluoroacetate]",< 1
2,"NC1CC2CCC(C1)N2C(=O)[C@H](NS(=O)(=O)c1ccc2cc(OC3CCCC3)ccc2c1)C(F)(F)c1ccc(I)cc1 (stereo partly drawn) [Compound 42-2, N-((2S)-3-(3-amino-8-azabicyclo[3.2.1]octan-8-yl)-1,1-difluoro-1-(4-iodophenyl)-3-oxopropan-2-yl)-6-(cyclopentyloxy) naphthalene-2-sulfonamide trifluoroacetate]",1 to 10
3,"NC1CCN(C(=O)[C@@H](NS(=O)(=O)c2ccc3cc(OC4CCCC4)ccc3c2)C(F)(F)c2ccc(-c3ccccc3)cc2)CC1 [Compound 43-1, (R)—N-(1-([1,1′-biphenyl]-4-yl)-3-(4-aminopiperidin-1-yl)-1,1-difluoro-3-oxopropan-2-yl)-6-(cyclopentyloxy)naphthalene-2-sulfonamide]",< 1
4,"NC1CCN(C(=O)[C@H](NS(=O)(=O)c2ccc3cc(OC4CCCC4)ccc3c2)C(F)(F)c2ccc(-c3ccccc3)cc2)CC1 [Compound 43-2, (S)—N-(1-([1,1′-biphenyl]-4-yl)-3-(4-aminopiperidin-1-yl)-1,1-difluoro-3-oxopropan-2-yl)-6-(cyclopentyloxy)naphthalene-2-sulfonamide]",1 to 10
5,"CN([C@H](C(=O)N1CCC(N)CC1)C(F)(F)c1ccc(Br)cc1)S(=O)(=O)c1ccc2cc(OC3CCCC3)ccc2c1 [Compound 44-1, (R)—N-(3-(4-aminopiperidin-1-yl)-1-(4-bromophenyl)-1,1-difluoro-3-oxopropan-2-yl)-6-(cyclopentyloxy)-N-methylnaphthalene-2-sulfonamide]",< 1
6,"CN([C@@H](C(=O)N1CCC(N)CC1)C(F)(F)c1ccc(Br)cc1)S(=O)(=O)c1ccc2cc(OC3CCCC3)ccc2c1 [Compound 44-2, (S)—N-(3-(4-aminopiperidin-1-yl)-1-(4-bromophenyl)-1,1-difluoro-3-oxopropan-2-yl)-6-(cyclopentyloxy)-N-methylnaphthalene-2-sulfonamide]",1 to 10
7,"COc1ccc(C(F)(F)[C@H](NS(=O)(=O)c2ccc3cc(OC4CCCC4)ccc3c2)C(=O)N2C3CCC2CC(N)C3)cc1 (stereo partly drawn) [Compound 45-1, N-((2R)-3-(3-amino-8-azabicyclo[3.2.1]octan-8-yl)-1,1-difluoro-1-(4-methoxyphenyl)-3-oxopropan-2-yl)-6-(cyclopentyloxy)naphthalene-2-sulfonamide]",10 to 30
8,"COc1ccc(C(F)(F)[C@@H](NS(=O)(=O)c2ccc3cc(OC4CCCC4)ccc3c2)C(=O)N2C3CCC2CC(N)C3)cc1 (stereo partly drawn) [Compound 45-2, N-((2S)-3-(3-amino-8-azabicyclo[3.2.1]octan-8-yl)-1,1-difluoro-1-(4-methoxyphenyl)-3-oxopropan-2-yl)-6-(cyclopentyloxy)naphthalene-2-sulfonamide]",1 to 10
9,"CC(C)Oc1ccc2cc(S(=O)(=O)N(C)[C@H](C(=O)N3C4CCC3CC(N)C4)C(F)(F)c3ccc(Br)cc3)ccc2c1 (stereo partly drawn) [Compound 46-1, N-((2R)-3-(3-amino-8-azabicyclo[3.2.1]octan-8-yl)-1-(4-bromophenyl)-1,1-difluoro-3-oxopropan-2-yl)-6-isopropoxy-N-methylnaphthalene-2-sulfonamide trifluoroacetate]",1 to 10
10,"CC(C)Oc1ccc2cc(S(=O)(=O)N(C)[C@@H](C(=O)N3C4CCC3CC(N)C4)C(F)(F)c3ccc(Br)cc3)ccc2c1 (stereo partly drawn) [Compound 46-2, N-((2S)-3-(3-amino-8-azabicyclo[3.2.1]octan-8-yl)-1-(4-bromophenyl)-1,1-difluoro-3-oxopropan-2-yl)-6-isopropoxy-N-methylnaphthalene-2-sulfonamide trifluoroacetate]",30 to 100
11,"NC1CC2CCC(C1)N2C(=O)[C@@H](NS(=O)(=O)c1ccc2cc(OC3CCC3)ccc2c1)C(F)(F)c1ccc(Br)cc1 (stereo partly drawn) [Compound 47-1, N-((2R)-3-(3-amino-8-azabicyclo[3.2.1]octan-8-yl)-1-(4-bromophenyl)-1,1-difluoro-3-oxopropan-2-yl)-6-cyclobutoxynaphthalene-2-sulfonamide]",1 to 10
12,"NC1CC2CCC(C1)N2C(=O)[C@H](NS(=O)(=O)c1ccc2cc(OC3CCC3)ccc2c1)C(F)(F)c1ccc(Br)cc1 (stereo partly drawn) [Compound 47-2, N-((2S)-3-(3-amino-8-azabicyclo[3.2.1]octan-8-yl)-1-(4-bromophenyl)-1,1-difluoro-3-oxopropan-2-yl)-6-cyclobutoxynaphthalene-2-sulfonamide]",10 to 30
13,"CN([C@H](C(=O)N1C2CCC1CC(N)C2)C(F)(F)c1ccc(-c2ccccc2)cc1)S(=O)(=O)c1ccc2cc(OC3CCCC3)ccc2c1 (stereo partly drawn) [Compound 49-1, N-((2R)-1-([1,1′-biphenyl]-4-yl)-3-(3-amino-8-azabicyclo[3.2.1]octan-8-yl)-1,1-difluoro-3-oxopropan-2-yl)-6-(cyclopentyloxy)-N-methylnaphthalene-2-sulfonamide]",1 to 10
14,"CN([C@@H](C(=O)N1C2CCC1CC(N)C2)C(F)(F)c1ccc(-c2ccccc2)cc1)S(=O)(=O)c1ccc2cc(OC3CCCC3)ccc2c1 (stereo partly drawn) [Compound 49-2, N-((2S)-1-([1,1′-biphenyl]-4-yl)-3-(3-amino-8-azabicyclo[3.2.1]octan-8-yl)-1,1-difluoro-3-oxopropan-2-yl)-6-(cyclopentyloxy)-N-methylnaphthalene-2-sulfonamide]",10 to 30
15,"NC1CC2CCC(C1)N2C(=O)[C@@H](NS(=O)(=O)c1ccc(OCC2CCCCC2)cc1)C(F)(F)c1ccc(-c2ccc(Cl)cc2)cc1 (stereo partly drawn) [Compound 50-1, N-((2R)-3-(3-amino-8-azabicyclo[3.2.1]octan-8-yl)-1-(4′-chloro-[1,1′-biphenyl]-4-yl)-1,1-difluoro-3-oxopropan-2-yl)-4-(cyclohexylmethoxy) benzenesulfonamide trifluoroacetate]",< 1
16,"NC1CC2CCC(C1)N2C(=O)[C@H](NS(=O)(=O)c1ccc(OCC2CCCCC2)cc1)C(F)(F)c1ccc(-c2ccc(Cl)cc2)cc1 (stereo partly drawn) [Compound 50-2, N-((2S)-3-(3-amino-8-azabicyclo[3.2.1]octan-8-yl)-1-(4′-chloro-[1,1′-biphenyl]-4-yl)-1,1-difluoro-3-oxopropan-2-yl)-4-(cyclohexylmethoxy)benzenesulfonamide trifluoroacetate]",10 to 30
